Data from patent publication US20100204182A1, “ECTONUCLEOTIDASE INHIBITORS” (RHEINISCHE FRIEDRICH-WILHELMS-UNIVERSITAT BONN, priority 2006, published 2010).
Read-outs that look alike come from different tables or passages of the source.

Experiments:
human NTPDase1 = biological target: T1, human NTPDase1 (Homo sapiens, UniProt P49961); experiment: NTPDase inhibition assay by capillary electrophoresis (CE), NTPDase1; assay type: biochemical; conditions: ATP 320 μM; for Ki: CE method, Km 17 μM, read-out: NTPDase1 Ki [μM] ± SEM; for inhibition at 1000 µM: 1 mM compound
T1 sequence (P49961 1-510): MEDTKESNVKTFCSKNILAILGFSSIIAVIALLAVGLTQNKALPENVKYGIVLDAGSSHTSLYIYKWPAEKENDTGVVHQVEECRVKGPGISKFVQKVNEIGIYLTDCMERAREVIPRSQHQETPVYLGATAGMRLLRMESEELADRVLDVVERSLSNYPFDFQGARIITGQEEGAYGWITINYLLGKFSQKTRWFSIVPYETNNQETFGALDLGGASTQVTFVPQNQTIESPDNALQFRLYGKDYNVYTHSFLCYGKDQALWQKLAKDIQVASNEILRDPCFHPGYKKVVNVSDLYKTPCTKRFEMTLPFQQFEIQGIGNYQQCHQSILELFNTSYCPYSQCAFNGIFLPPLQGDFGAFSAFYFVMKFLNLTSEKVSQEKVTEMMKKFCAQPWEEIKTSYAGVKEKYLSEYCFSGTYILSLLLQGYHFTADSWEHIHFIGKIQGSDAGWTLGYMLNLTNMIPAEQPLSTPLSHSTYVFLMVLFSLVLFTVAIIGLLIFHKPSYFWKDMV
Protocol: (§1) The applied enzyme inhibition assay has been described (Iqbal J, Vollmayer P, Braun N, Zimmermann H, Müller C E. A capillary electrophoresis method for the characterization of ecto-nucleoside triphosphate diphosphohydrolases (NTPDases) and the analysis of inhibitors by in-capillary enzymatic microreaction. Purinergic Signalling 2005, 1, 349-358).
(§2) A. CE instrumentation: All experiments were carried out using a P/ACE MDQ capillary electrophoresis system (Beckman Instruments, Fullerton, Calif., USA) equipped with a UV detection system coupled with a diode-array detector (DAD). Data collection and peak area analysis were performed by the P/ACE MDQ software 32 KARAT obtained from Beckman Coulter. The capillary temperature was kept constant at 25° C. The temperature of the sample storing unit was also adjusted to 25° C. The electrophoretic separations were carried out using an eCAP polyacrylamide-coated fused-silica capillary [(30 cm (20 cm effective length)×50 μm internal diameter (I.D.)×360 μm outside diameter (O.D.), obtained from CS-Chromatographie (Langerwehe, Germany)]. The separation was performed using an applied current of −60 μA and a data acquisition rate of 8 Hz. Analytes were detected using direct UV absorbance at 210 nm. The capillary was conditioned by rinsing with water for 2 min and subsequently with buffer (phosphate 50 mM, pH 6.5) for 1 min. Sample injections were made at the cathodic side of the capillary.
(§3) B. NTPDase inhibition assay by capillary electrophoresis: Enzyme inhibition assays were carried out at 37° C. in a final volume of 100 μl. The reaction mixture contained 320 μM of ATP (substrate) in reaction buffer. The reaction buffer contained 140 mM NaCl, 5 mM KCl, 1 mM MgCl2, 2 mM CaCl2, and 10 mM Hepes, pH 7.4.
(§4) Different concentrations of inhibitors dissolved in DMSO or water (10 μl) were added and the reaction was initiated by the addition of 10 μl of the appropriately diluted recombinant or native human or rat NTPDase enzyme. […] The mixture (final volume 100 μl) was incubated for 15 min and terminated by heating at 99° C. for 4 min. Aliquots of the reaction mixture (50 μl) were then transferred to mini-CE vials and injected into the CE instrument under the conditions described above. 20 μM of UMP was used as internal standard. Inhibition of NTPDase was tested over a range of 6 to 8 concentrations of test compound spanning 3 orders of magnitude to determine K1 values. Each analysis was repeated two times (in triplicates) in two separate experiments. The Cheng-Prusoff equation was used to calculate the K1 values from the IC50 values, determined by the non-linear curve fitting program PRISM® 3.0 (GraphPad, San Diego, Calif., USA). In table 1K, values of selected compounds as inhibitors of human NTPDases are given.

human NTPDase2 = biological target: T2, human NTPDase2 (Homo sapiens, UniProt Q9Y5L3); experiment: NTPDase inhibition assay by capillary electrophoresis (CE), NTPDase2; assay type: biochemical; conditions: human NTPDase2; CE method; ATP 320 μM; Km 70 μM; read-out: NTPDase2 Ki [μM] ± SEM
T2 sequence (Q9Y5L3 1-495): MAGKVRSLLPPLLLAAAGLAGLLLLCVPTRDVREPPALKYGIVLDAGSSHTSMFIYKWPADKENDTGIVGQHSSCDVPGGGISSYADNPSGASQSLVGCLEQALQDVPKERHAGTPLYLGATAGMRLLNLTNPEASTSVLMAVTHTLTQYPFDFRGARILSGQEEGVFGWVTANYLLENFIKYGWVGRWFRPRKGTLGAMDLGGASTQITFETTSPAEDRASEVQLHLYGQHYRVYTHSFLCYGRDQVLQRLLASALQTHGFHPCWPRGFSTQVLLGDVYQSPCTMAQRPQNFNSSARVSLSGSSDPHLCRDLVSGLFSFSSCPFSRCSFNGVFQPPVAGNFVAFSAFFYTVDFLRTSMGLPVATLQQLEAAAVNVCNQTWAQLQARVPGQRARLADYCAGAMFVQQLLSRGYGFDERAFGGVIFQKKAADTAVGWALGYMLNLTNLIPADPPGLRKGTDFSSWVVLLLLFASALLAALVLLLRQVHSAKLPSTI

human NTPDase3 = biological target: T3, human NTPDase3 (Homo sapiens, UniProt O75355); experiment: NTPDase inhibition assay by capillary electrophoresis (CE), NTPDase3; assay type: biochemical; conditions: ATP 320 μM; for inhibition at 1000 µM: 1 mM compound; for Ki: CE method, Km 75 μM, read-out: NTPDase3 Ki [μM] ± SEM
T3 sequence (O75355 1-529): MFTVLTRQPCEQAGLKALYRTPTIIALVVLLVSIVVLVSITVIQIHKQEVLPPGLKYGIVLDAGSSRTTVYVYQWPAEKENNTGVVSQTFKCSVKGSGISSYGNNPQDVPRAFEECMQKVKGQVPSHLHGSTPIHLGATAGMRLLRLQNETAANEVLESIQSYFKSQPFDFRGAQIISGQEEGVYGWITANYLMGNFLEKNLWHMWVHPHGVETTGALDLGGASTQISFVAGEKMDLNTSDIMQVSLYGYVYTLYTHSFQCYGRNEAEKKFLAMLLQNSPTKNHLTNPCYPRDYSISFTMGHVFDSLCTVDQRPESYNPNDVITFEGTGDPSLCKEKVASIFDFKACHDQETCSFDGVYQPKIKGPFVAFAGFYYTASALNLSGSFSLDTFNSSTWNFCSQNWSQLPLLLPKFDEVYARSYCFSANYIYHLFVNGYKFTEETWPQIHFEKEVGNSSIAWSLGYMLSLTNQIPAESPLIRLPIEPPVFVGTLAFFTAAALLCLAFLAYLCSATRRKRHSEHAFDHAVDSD
Protocol: as §1, §2, §3, §4

human NTPDase8 = biological target: T4, human NTPDase8 (Homo sapiens, UniProt Q5MY95); experiment: NTPDase inhibition assay by capillary electrophoresis (CE), NTPDase8; assay type: biochemical; conditions: for Ki: read-out: NTPDase8 Ki [μM] ± SEM; for inhibition at 1000 µM: 1 mM compound
T4 sequence (Q5MY95 1-495): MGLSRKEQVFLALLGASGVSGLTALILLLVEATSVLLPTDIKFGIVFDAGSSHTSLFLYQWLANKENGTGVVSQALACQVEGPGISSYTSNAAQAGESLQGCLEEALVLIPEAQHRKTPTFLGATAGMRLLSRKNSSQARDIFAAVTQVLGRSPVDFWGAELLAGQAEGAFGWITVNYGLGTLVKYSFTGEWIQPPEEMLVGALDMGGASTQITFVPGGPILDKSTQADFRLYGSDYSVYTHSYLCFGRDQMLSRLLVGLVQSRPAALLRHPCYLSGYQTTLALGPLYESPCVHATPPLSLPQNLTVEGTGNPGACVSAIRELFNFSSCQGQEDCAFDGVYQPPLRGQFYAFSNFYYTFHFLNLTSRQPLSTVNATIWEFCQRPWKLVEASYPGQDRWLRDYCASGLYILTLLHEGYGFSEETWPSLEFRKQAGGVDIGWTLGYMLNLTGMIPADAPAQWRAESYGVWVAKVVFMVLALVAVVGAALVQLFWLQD
Protocol: as §1, §2, §3, §4

rP2Y6 = rP2Y6 (Rattus norvegicus, UniProt Q63371); experiment: Inhibition of UDP binding at rP2Y6; conditions: read-out: rP2Y6 % inhibition of UDP binding at 100 μM, n = 3, mean ± SEM
Sequence of rP2Y6 (Q63371 whole entry): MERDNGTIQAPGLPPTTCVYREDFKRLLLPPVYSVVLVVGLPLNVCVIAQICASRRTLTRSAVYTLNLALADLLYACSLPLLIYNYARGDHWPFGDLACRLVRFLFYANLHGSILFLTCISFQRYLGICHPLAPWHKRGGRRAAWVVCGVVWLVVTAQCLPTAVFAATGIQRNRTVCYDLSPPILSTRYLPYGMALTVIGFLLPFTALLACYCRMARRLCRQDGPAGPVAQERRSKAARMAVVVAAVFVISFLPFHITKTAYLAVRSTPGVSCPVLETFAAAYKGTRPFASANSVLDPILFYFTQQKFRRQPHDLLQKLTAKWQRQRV

hP2Y12 = hP2Y12 (Homo sapiens, UniProt Q9H244); experiment: Inhibition of [3H]PSB-0413 binding at hP2Y12; conditions: mean ± SEM, read-out: hP2Y12 % Inhibition of [^3H]PSB-0413 Binding at 10 μM, n = 3
Sequence of hP2Y12 (Q9H244 whole entry): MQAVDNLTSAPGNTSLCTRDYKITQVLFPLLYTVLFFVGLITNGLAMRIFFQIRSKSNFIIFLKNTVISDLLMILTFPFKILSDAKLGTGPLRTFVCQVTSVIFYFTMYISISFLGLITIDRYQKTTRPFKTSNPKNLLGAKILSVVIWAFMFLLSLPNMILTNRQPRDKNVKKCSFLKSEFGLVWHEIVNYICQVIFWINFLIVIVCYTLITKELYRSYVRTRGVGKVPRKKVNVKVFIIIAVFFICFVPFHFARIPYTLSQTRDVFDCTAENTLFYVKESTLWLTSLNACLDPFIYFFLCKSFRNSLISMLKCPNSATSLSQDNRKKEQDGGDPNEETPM
Protocol: In table 2 inhibition data of selected examples at human P2Y receptor subtypes were collected. It can be seen that no compound was identified that inhibited P2Y receptors at high concentrations of 100 μM and 10 μM, respectively.

Structure (SMILES): CCOP(=O)(Cc1ccc(NC(=O)CCCNC(=O)[C@H]2O[C@@H](n3ccc(=O)[nH]c3=O)C(O)C2O)cc1)OCC (stereo in doubt) [Compound 4, 4-[4-((2S,3R,4S,5R)-5-(2,4-Dioxo-3,4-dihydropyrimidin-1(2H)-yl)-3,4-dihydroxy-tetrahydrofurane-2-carboxamido)butaneamido]benzylphosphonic acid diethylester]
- Ki (human NTPDase1): 182 ± 24.3 µM
- Ki (human NTPDase2): 210 ± 25.3 µM
- inhibition at 1000 µM (human NTPDase3): 48%
- Ki (human NTPDase3): > 200 µM
- Ki (human NTPDase8; human NTPDase8, CE method, ATP 320 μM, Km 46 μM): 242 ± 39.3 µM
- inhibition at 100 µM (rP2Y6): -8 ± 11%
- inhibition at 10 µM (hP2Y12): 6 ± 4%

Structure (SMILES): CCOP(=O)(CNC(=O)CCNC(=O)[C@H]1O[C@@H](n2ccc(=O)[nH]c2=O)[C@H](O)[C@@H]1O)OCC [Compound 6, 3-[(2S,3R,4S,5R)-5-(2,4-Dioxo-3,4-dihydropyrimidin-1(2H)-yl)-3,4-dihydroxy-tetrahydrofurane-2-carboxamido]pronaneamidomethylphosphonic acid diethylester]
- inhibition at 1000 µM (human NTPDase1): 0%
- Ki (human NTPDase1): > 50 µM
- Ki (human NTPDase2): 167 ± 21 µM
- inhibition at 1000 µM (human NTPDase3): 0%
- Ki (human NTPDase3): > 200 µM
- inhibition at 1000 µM (human NTPDase8; human NTPDase8, ATP 320 μM): 0%
- Ki (human NTPDase8): > 100 µM
- inhibition at 100 µM (rP2Y6): -3 ± 2%
- inhibition at 10 µM (hP2Y12): 7 ± 5%

Structure (SMILES): CCOP(=O)(CNC(=O)CNC(=O)[C@H]1O[C@@H](n2ccc(=O)[nH]c2=O)C(O)C1O)OCC (stereo in doubt) [Compound 5, 2-[(2S,3R,4S,5R)-5-(2,4-Dioxo-3,4-dihydropyrimidin-1(2H)-yl)-3,4-dihydroxy-tetrahydrofurane-2-carboxamido]ethaneamidomethylphosphonic acid diethylester]
- Ki (human NTPDase1): 786 ± 33 µM
- Ki (human NTPDase2): 71.7 ± 13.5 µM
- inhibition at 1000 µM (human NTPDase3): 0%
- Ki (human NTPDase3): > 200 µM
- inhibition at 1000 µM (human NTPDase8; human NTPDase8, ATP 320 μM): 0%
- Ki (human NTPDase8): > 100 µM
- inhibition at 100 µM (rP2Y6): 17 ± 16%
- inhibition at 10 µM (hP2Y12): 31 ± 1%

Structure (SMILES): CCOP(=O)(CNC(=O)CCCNC(=O)[C@H]1O[C@@H](n2ccc(=O)[nH]c2=O)C(O)C1O)OCC (stereo in doubt) [Compound 7, 4-[(2S,3R,4S,5R)-5-(2,4-Dioxo-3,4-dihydropyrimidin-1(2H)-yl)-3,4-dihydroxy-tetrahydrofurane-2-carboxamido]butaneamidomethylphosphonic acid diethylester]
- inhibition at 1000 µM (human NTPDase1): 45%
- Ki (human NTPDase1): > 50 µM
- Ki (human NTPDase2): 29.2 ± 2.7 µM
- inhibition at 1000 µM (human NTPDase3): 0%
- Ki (human NTPDase3): > 200 µM
- inhibition at 1000 µM (human NTPDase8; human NTPDase8, ATP 320 μM): 0%
- Ki (human NTPDase8): > 100 µM
- inhibition at 100 µM (rP2Y6): -3 ± 11%
- inhibition at 10 µM (hP2Y12): 2 ± 8%

Structure (SMILES): CCOP(=O)(CCNC(=O)CNC(=O)[C@H]1O[C@@H](n2ccc(=O)[nH]c2=O)C(O)C1O)OCC (stereo in doubt) [Compound 8, 2-[2-((2S,3R,4S,5R)-5-(2,4-Dioxo-3,4-dihydropyrimidin-1(2H)-yl)-3,4-dihydroxy-tetrahydrofurane-2-carboxamido)ethaneamido]ethylphosphonic acid diethylester]
- inhibition at 1000 µM (human NTPDase1): 0%
- Ki (human NTPDase1): > 50 µM
- Ki (human NTPDase2): 116 ± 24 µM
- inhibition at 1000 µM (human NTPDase3): 22%
- Ki (human NTPDase3): > 200 µM
- inhibition at 1000 µM (human NTPDase8; human NTPDase8, ATP 320 μM): 0%
- Ki (human NTPDase8): > 100 µM
- inhibition at 100 µM (rP2Y6): 9 ± 13%
- inhibition at 10 µM (hP2Y12): 2 ± 3%
